As usually defined, the Ki is the dissociation constant of the complex between target and ligand, obtained from inhibition or displacement.

We go through 30 molecules from patent publication US9605005B2, “Alkynyl alcohols and methods of use” (Genentech, Inc., priority 2013, dated 2017).

This assay addresses nuclear factor-kappa B (NF-kB)-inducing kinase (NIK) (Homo sapiens (Human), UniProt Q99558). As to the kind of experiment: NIK enzyme inhibition assay (Transcreener ADP, NIK ADP-FP). Type of assay: biochemical. Conditions: purified NIK 0.5 nM, 10 μM ATP, fluorescence polarization; read-out: NIK ADP-FP (Ki μM). For orientation: Polarisation of emitted light reports the rotation of a fluorescent probe.

Structures are written as SMILES.

Sequence of nuclear factor-kappa B (NF-kB)-inducing kinase (NIK) (Q99558 whole entry): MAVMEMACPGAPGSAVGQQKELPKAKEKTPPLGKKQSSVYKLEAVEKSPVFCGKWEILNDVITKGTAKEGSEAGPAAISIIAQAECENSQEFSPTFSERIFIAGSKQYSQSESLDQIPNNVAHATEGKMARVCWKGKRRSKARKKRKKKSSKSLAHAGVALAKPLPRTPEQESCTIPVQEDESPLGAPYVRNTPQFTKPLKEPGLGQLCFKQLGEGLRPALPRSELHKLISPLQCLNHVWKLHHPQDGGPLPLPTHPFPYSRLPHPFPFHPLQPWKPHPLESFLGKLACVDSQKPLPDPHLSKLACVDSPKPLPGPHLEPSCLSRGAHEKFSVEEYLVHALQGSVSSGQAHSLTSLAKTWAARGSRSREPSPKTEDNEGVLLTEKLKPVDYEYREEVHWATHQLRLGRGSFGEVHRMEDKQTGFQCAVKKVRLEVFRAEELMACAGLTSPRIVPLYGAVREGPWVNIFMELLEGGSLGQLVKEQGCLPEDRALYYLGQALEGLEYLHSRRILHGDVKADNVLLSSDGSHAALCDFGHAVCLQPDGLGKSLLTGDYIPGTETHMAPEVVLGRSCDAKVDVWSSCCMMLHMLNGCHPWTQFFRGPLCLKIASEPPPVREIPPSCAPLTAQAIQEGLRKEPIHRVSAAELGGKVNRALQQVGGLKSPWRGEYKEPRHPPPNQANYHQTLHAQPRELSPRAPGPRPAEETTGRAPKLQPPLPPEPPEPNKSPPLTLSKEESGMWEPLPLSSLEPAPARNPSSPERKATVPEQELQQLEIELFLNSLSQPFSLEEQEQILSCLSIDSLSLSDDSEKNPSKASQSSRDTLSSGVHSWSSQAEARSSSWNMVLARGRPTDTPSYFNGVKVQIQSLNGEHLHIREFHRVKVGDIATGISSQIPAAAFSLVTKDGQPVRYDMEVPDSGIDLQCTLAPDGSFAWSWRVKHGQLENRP

In the case of `CN1CC[C@@](O)(C#Cc2cccc(-n3nc(C(N)=O)c4c3CCN(CC(C)(C)O)C4)c2)C1=O` [Compound 40, 1-[3-[2-[(3R)-3-hydroxy-1-methyl-2-oxo-pyrrolidin-3-yl]ethynyl]phenyl]-5-(2-hy-droxy-2-methyl-propyl)-6,7-dihydro-4H-pyrazolo[4,3-c]pyridine-3-carboxamide], the Ki stood at 71 nM. As for `C[C@H](O)c1ccc2c(c1)c(C(N)=O)nn2-c1cccc(C#C[C@]2(O)CCN(C)C2=O)c1` [Compound 45, 5-[(1S)-1-hydroxyethyl]-1-[3-[2-[(3R)-3-hydroxy-1-meth-yl-2-oxo-pyrrolidin-3-yl]ethynyl]phenyl]indazole-3-carboxamide], the inhibition constant (Ki) stood at 2.33 nM.

On to `CN1CC[C@@](O)(C#Cc2cccc(-n3nc(C(N)=O)c4c3C[C@@]3(C)C(C4)C3(F)F)c2)C1=O` (stereo partly drawn) [Compound 47, (5aS)-5,5-difluoro-1-[3-[2-[(3R)-3-hydroxy-1-methyl-2-oxo-pyrrolidin-3-yl]ethyn-yl]phenyl]-5a-methyl-4a,6-dihydro-4H-cyclopropa[f] indazole-3-carboxamide], for which the Ki is 22.6 nM. Regarding `CN1CC[C@@](O)(C#Cc2cccc(-n3nc(C(N)=O)c4cc(CN5CCCC5)ccc43)c2)C1=O` [Compound 48, 1-[3-[2-[(3R)-3-hydroxy-1-methyl-2-oxo-pyrrolidin-3-yl]ethynyl]phenyl]-5-(pyrro-lidine-1-ylmethyl)indazole-3-carboxamide], the Ki worked out at 64.7 nM. Then `CN1CC[C@@](O)(C#Cc2cccc(-n3nc(C(N)=O)c4c3C[C@]3(C)C(C4)C3(F)F)c2)C1=O` (stereo partly drawn) [Compound 50, (5aR)-5,5-difluoro-1-[3-[2-[(3R)-3-hydroxy-1-methyl-2-oxo-pyrrolidin-3-yl]ethyn-yl]phenyl]-5a-methyl-4a,6-dihydro-4H-cyclopropa[f]inda-zole-3-carboxamide], with 170 nM; and `CN1CC[C@@](O)(C#Cc2ccnc(-n3nc(C(N)=O)c4c3C3CC(C4)C3)c2)C1=O` [Compound 58, (R)-1-(4-((3-hydroxy-1-meth-yl-2-oxopyrrolidin-3-yl)eth-ynyl)pyridin-2-yl)-4,5,6,7-tetrahydro-1H-5,7-methano-indazole-3-carboxamide], with 18.7 nM. Regarding `CN1CC[C@@](O)(C#Cc2ccnc(-n3nc(C(N)=O)c4c3CC3CC4C3)c2)C1=O` [Compound 59, (R)-1-(4-((3-hydroxy-1-meth-yl-2-oxopyrrolidin-3-yl)eth-ynyl)pyridin-2-yl)-4,5,6,7-tetrahydro-1H-4,6-methano-indazole-3-carboxamide], the Ki amounted to 7.2 nM. On to `CN1CC[C@@](O)(C#Cc2ccnc(-n3nc(C(N)=O)c4c3C[C@H](O)CC4)c2)C1=O` [Compound 61, (6R)-6-hydroxy-1-[4-[2-[(3R)-3-hydroxy-1-methyl-2-oxo-pyrrolidin-3-yl]ethynyl]-2-pyridyl]-4,5,6,7-tetrahydro-indazole-3-carboxamide], for which the Ki came to 4.46 nM. To `CN1CC[C@@](O)(C#Cc2ccnc(-n3nc(C(N)=O)c4c3C[C@@H](O)CC4)c2)C1=O` [Compound 62, (6S)-6-hydroxy-1-[4-[2-[(3R)-3-hydroxy-1-methyl-2-oxo-pyrrolidin-3-yl]ethynyl]-2-pyridyl]-4,5,6,7-tetrahydro-indazole-3-carboxamide] belongs 5.47 nM. To `CN1CC[C@@](O)(C#Cc2cccc(-n3nc(C(N)=O)c4c3CS(=O)(=O)CC4)c2)C1=O` [Compound 68, 1-[3-[2-[(3R)-3-hydroxy-1-methyl-2-oxo-pyrrolidin-3-yl]ethynyl]phenyl]-6,6-dioxo-5,7-dihydro-4H-thiopyra-no[3,4-c]pyrazole-3-carbox-amide] belongs 237 nM. With `Cc1cc(C(N)=O)nn1-c1cc(C#C[C@]2(O)CCN(C)C2=O)ccn1` [Compound 79, 1-[4-[2-[(3R)-3-hydroxy-1-methyl-2-oxo-pyrrolidin-3-yl]ethynyl]-2-pyridyl]-5-meth-yl-pyrazole-3-carboxamide], the Ki turned out to be 10.8 nM. To `Cc1cc([C@](C)(O)C#Cc2ccnc(-n3nc(C(N)=O)cc3C)c2)no1` [Compound 80, 1-[4-[(3R)-3-hydroxy-3-(5-methylisoxazol-3-yl)but-1-ynyl]-2-pyridyl]-5-methyl-pyrazole-3-carboxamide] belongs 84.5 nM; to `Cc1cc([C@](C)(O)C#Cc2ccnc(-n3nc(C(N)=O)c(Cl)c3C)c2)no1` [Compound 82, 4-chloro-1-[4-[(3R)-3-hydroxy-3-(5-methylisoxazol-3-yl)but-1-ynyl]-2-pyridyl]-5-methyl-pyrazole-3-carboxamide], 99.1 nM; to `CN1CC[C@@](O)(C#Cc2cccc(-c3nc(C(N)=O)c4n3CCCC4)c2)C1=O` [Compound 84, 3-[3-[2-[(3R)-3-hydroxy-1-methyl-2-oxo-pyrrolidin-3-yl]ethynyl]phenyl]-5,6,7,8-tetra-hydroimidazo[1,5-a]pyri-dine-1-carboxamide], 33.9 nM. In the case of `CN1CC[C@@](O)(C#Cc2cccc(-c3nc(C(N)=O)n4c3NCC4)c2)C1=O` [Compound 87, 7-[3-[2-[(3R)-3-hydroxy-1-methyl-2-oxo-pyrrolidin-3-yl]ethynyl]phenyl]-2,3-dihy-dro-1H-imidazo[1,5-a]imida-zole-5-carboxamide], the Ki came out at 20.4 nM. In the case of `Cc1cn(-c2ccc3c(c2)c(C(N)=O)nn3-c2cccc(C#C[C@]3(O)CCN(C)C3=O)c2)cn1` [Compound 106, 1-[3-[2-[(3R)-3-hydroxy-1-methyl-2-oxo-pyrrolidin-3-yl]ethynyl]phenyl]-5-(4-meth-ylimidazol-1-yl)indazole-3-carboxamide], the Ki is 0.05 nM. As to `CC(=O)N1CC(c2cnc3c(c2)c(C(N)=O)nn3-c2cccc(C#C[C@]3(O)CCN(C)C3=O)c2)C1` [Compound 107, 5-(1-acetylazetidin-3-yl)-1-[3-[2-[(3R)-3-hydroxy-1-meth-yl-2-oxo-pyrrolidin-3-yl]ethynyl]phenyl]pyrazolo[3,4-b]pyridine-3-carboxamide], the Ki was determined as 1.82 nM.

In the case of `CN1CC[C@@](O)(C#Cc2cccc(-n3nc(C(N)=O)c4[nH]c(=O)ccc43)c2)C1=O` [Compound 108, 1-[3-[2-[(3R)-3-hydroxy-1-methyl-2-oxo-pyrrolidin-3-yl]ethynyl]phenyl]-5-oxo-4H-pyrazolo[4,3-b]pyridine-3-carboxamide], the Ki came to 0.24 nM. `CNC(=O)c1ccc2c(c1)c(C(N)=O)nn2-c1cccc(C#C[C@]2(O)CCN(C)C2=O)c1` [Compound 112, 1-[3-[2-[(3R)-3-hydroxy-1-methyl-2-oxo-pyrrolidin-3-yl]ethynyl]phenyl]-N5-meth-yl-indazole-3,5-dicarbox-amide]: the Ki was determined as 0.08 nM. As for `NC(=O)c1nn(-c2cccc(C#C[C@@]3(O)CCCC3=O)c2)c2ccccc12` [Compound 115, 1-[3-[2-[(1S)-1-hydroxy-2-oxo-cyclopentyl]ethynyl]phe-nyl]indazole-3-carboxamide], the Ki was found to be 86.1 nM.

For the molecule `NC(=O)c1nn(-c2cccc(C#C[C@]3(O)CCCC3=O)c2)c2ccccc12` [Compound 116, 1-[3-[2-[(1R)-1-hydroxy-2-oxo-cyclopentyl]ethynyl]phe-nyl]indazole-3-carboxamide], the Ki was 0.63 nM.

Turning to `C[C@](O)(C#Cc1cccc(-n2nc(C(N)=O)c3ccccc32)c1)c1c[nH]nn1` [Compound 118, 1-[3-[(3S)-3-hydroxy-3-(1H-triazol-4-yl)but-1-ynyl]phenyl]indazole-3-carboxamide], the inhibition constant (Ki) was 16.6 nM. Consider `CN1CC[C@@](O)(C#Cc2cccc(-n3nc(C(N)=O)c4c3CCN([S@@+](C)[O-])C4)c2)C1=O` [Compound 123, 1-[3-[2-[(3R)-3-hydroxy-1-methyl-2-oxo-pyrrolidin-3-yl]ethynyl]phenyl]-5-[(R)-methylsulfinyl]-6,7-dihydro-4H-pyrazolo[4,3-c]pyridine-3-carboxamide], for which the Ki turned out to be 18 nM. On to `CN1CC[C@@](O)(C#Cc2cccc(-n3nc(C(N)=O)c4c3CCN([S@+](C)[O-])C4)c2)C1=O` [Compound 124, 1-[3-[2-[(3R)-3-hydroxy-1-methyl-2-oxo-pyrrolidin-3-yl]ethynyl]phenyl]-5-[(S)-methylsulfinyl]-6,7-dihydro-4H-pyrazolo[4,3-c]pyridine-3-carboxamide], for which the Ki was 46.4 nM. Turning to `CN1C[C@H](O)[C@@](O)(C#Cc2cccc(-n3nc(C(N)=O)c4ccccc43)c2)C1=O` [Compound 125, 1-[3-[2-[(3S,4S)-3,4-dihydroxy-1-methyl-2-oxo-pyrroli-din-3-yl]ethynyl]phenyl]in-dazole-3-carboxamide], the Ki stood at 19.6 nM. Take `CN1C[C@@H](O)[C@@](O)(C#Cc2cccc(-n3nc(C(N)=O)c4ccccc43)c2)C1=O` [Compound 126, 1-[3-[2-[(3S,4R)-3,4-dihydroxy-1-methyl-2-oxo-pyrroli-din-3-yl]ethynyl]phenyl]inda-zole-3-carboxamide]: the Ki turned out to be 591 nM. For `CN1C[C@@H](O)[C@](O)(C#Cc2cccc(-n3nc(C(N)=O)c4ccccc43)c2)C1=O` [Compound 127, 1-[3-[2-[(3R,4R)-3,4-dihydroxy-1-methyl-2-oxo-pyrroli-din-3-yl]ethynyl]phenyl]inda-zole-3-carboxamide], the Ki came out at 10.2 nM. Turning to `CN1C[C@H](O)[C@](O)(C#Cc2cccc(-n3nc(C(N)=O)c4ccccc43)c2)C1=O` [Compound 128, 1-[3-[2-[(3R,4S)-3,4-dihydroxy-1-methyl-2-oxo-pyrroli-din-3-yl]ethynyl]phenyl]inda-zole-3-carboxamide], the Ki was found to be 1250 nM.

Regarding `CN1CC[C@@](O)(C#Cc2cccc(-n3nc(C(N)=O)c4cnc(C#N)cc43)c2)C1=O` [Compound 133, 6-cyano-1-[3-[2-[(3R)-3-hy-droxy-1-methyl-2-oxo-pyrroli-din-3-yl]ethynyl]phenyl] pyrazolo[4,3-c]pyridine-3-carboxamide], the Ki is 1.31 nM. Take `N#Cc1cc2c(cn1)c(C(N)=O)nn2-c1cccc(C#C[C@]2(O)CCc3cccnc32)c1` [Compound 134, 6-cyano-1-[3-[2-[(7R)-7-hy-droxy-5,6-dihydrocyclopen-ta[b]pyridin-7-yl]ethynyl]phe-nyl]pyrazolo[4,3-c]pyridine-3-carboxamide]: the Ki was 1250 nM.
